Assay results published in patent publication US8410173B2, “Inhibition of JAK2 as a treatment of pulmonary arterial hypertension” (YM Biosciences Australia Pty Ltd, priority 2006, dated 2013).
“Also recorded” adds a separate entry of the source. Marks after values point to notes of the source that are not given here.

Legend:
[1] = system: rat monocrotaline model of pulmonary arterial hypertension; experiment: rat monocrotaline model of pulmonary arterial hypertension, RV pressures; type: in vivo; conditions: for RVEDP Mean / RVS Mean Difference (I − J) vs group 1 (saline control) / RVS Mean Difference (I − J) vs group 2 (monocrotaline, vehicle): day 21
Method: To test the efficacy of JAK2 inhibition as a treatment for PAH, the rat monocrotaline model of pulmonary arterial hypertension was used. Animals with pulmonary arterial hypertension induced by monocrotaline were treated for three weeks with the selective JAK2 inhibitor, AG490, or vehicle. AG490 is a tyrphostin based tyrosine kinase inhibitor selective for JAK2.

[2] = system: plexiform lesions in lungs of monocrotaline treated rats; experiment: histological studies (H&E) of lungs, rat monocrotaline model; type: in vivo; conditions: AG490 1 mg/kg tid, H&E stains of formalin fixed lungs
Method: A. Normal lung; B. Lung from monocrotaline treated animal. C. Lung from rat given monocrotaline and AG490 1 mg/kg tid. The arrows point to pulmonary arterioles.
Histological studies of the lungs from group 2 and group 5 were performed to determine the effect of selective JAK2 inhibition on the pulmonary vascular lesions associated with PAH.

[3] = system: rat monocrotaline model of PAH; conditions: cited from earlier work; for efficacy in the rat monocrotaline model of PAH: sildenafil oral, alone or in combination with beraprost
[4] = group 3, AG490 1 mg/kg/day SID IP
[5] = group 4, AG490 3 mg/kg/day SID IP
[6] = group 5, AG490 1 mg/kg/dose TID IP

N#C/C(=C\c1ccc(O)c(O)c1)C(=O)NCc1ccccc1 [AG490]
reduction of RV systolic pressure vs vehicle treated group ([1]; AG490 1 mg/kg tid, day 21, p=0.023): 24% | RV systolic pressure ([1]; AG490 1 mg/kg tid, monocrotaline treated rats, day 21 (group 5), vehicle 38.44±3.1): 29.23±4.5 mm Hg | RV systolic pressure improvement, in words ([1]; group 3, AG490 1 mg/kg/day): No improvement | RVEDP Mean Difference (I − J) vs group 1 (saline control) [1, 4]: 5.5436 | RVEDP Mean Difference (I − J) vs group 2 (monocrotaline, vehicle) [1, 4]: −.0585 | RVEDP Mean [1, 4]: 4.042 mm Hg | RVS Mean Difference (I − J) vs group 1 (saline control) [1, 4]: 11.468* | RVS Mean Difference (I − J) vs group 2 (monocrotaline, vehicle) [1, 4]: −2.487 | RVEDP Mean Difference (I − J) vs group 1 (saline control) [1, 5]: .6433 | RVEDP Mean Difference (I − J) vs group 2 (monocrotaline, vehicle) [1, 5]: −4.9588 | RVEDP Mean [1, 5]: −.858 mm Hg | RVS Mean Difference (I − J) vs group 1 (saline control) [1, 5]: 6.730 | RVS Mean Difference (I − J) vs group 2 (monocrotaline, vehicle) [1, 5]: −7.225 | RV systolic pressure compared to group 2 (vehicle only), in words ([1]; group 5, AG490 1 mg/kg tid, p=0.023, 1 mg/kg): significantly reduced; also recorded: significant reduction; also recorded: significantly lower | RV End diastolic pressure compared to group 2 (vehicle), in words ([1]; group 5, AG490 1 mg/kg tid, p=0.05): significantly lower | RVEDP Mean Difference (I − J) vs group 1 (saline control) [1, 6]: −.0193 | RVEDP Mean Difference (I − J) vs group 2 (monocrotaline, vehicle) [1, 6]: −5.6214* | RVEDP Mean [1, 6]: −1.521 mm Hg | RVS Mean Difference (I − J) vs group 1 (saline control) [1, 6]: 4.741 | RVS Mean Difference (I − J) vs group 2 (monocrotaline, vehicle) [1, 6]: −9.214* | plexiform lesions associated with pulmonary arterial hypertension [2]: prevented the formation of plexiform lesions; also recorded: decreased

O=C(C(=O)N1CCn2nc(-c3ccc(F)cc3)c(-c3ccncc3)c2N1)c1ccccc1.O=S(=O)(O)O [FR167653]
progression of PAH ([3]; rat monocrotaline model): decrease the progression of PAH

COc1ccccc1Oc1c(NS(=O)(=O)c2ccc(C(C)(C)C)cc2)nc(-c2ncccn2)nc1OCCO [bosentan]
pulmonary artery thickening ([3]; rat monocrotaline model): decrease pulmonary artery thickening | pulmonary hypertension ([3]; rat monocrotaline model): reduce pulmonary hypertension

O=S(=O)(c1cccc2cnccc12)N1CCCNCC1 [fasudil]
progression of PAH ([3]; rat monocrotaline model): prevented the progression of PAH | pulmonary arterial hypertension, pulmonary vascular lesions, endothelial cell dysfunction, and RV hypertrophy ([3]; rat monocrotaline model): decreased | survival ([3]; rat monocrotaline model): improved survival

CC#CCC(C)[C@H](O)/C=C/[C@@H]1[C@H]2C/C(=C/CCCC(=O)O)C[C@H]2C[C@H]1O (stereo partly shown) [iloprost]
efficacy in the rat monocrotaline model of PAH [3]: showed efficacy

Cc1ccc(NC(=O)c2ccc(CN3CCN(C)CC3)cc2)cc1Nc1nccc(-c2cccnc2)n1 [imantinib]
RV systolic pressure ([3]; rat monocrotaline model): decreased | survival ([3]; rat monocrotaline model): improved survival

CCCc1nn(C)c2c(=O)[nH]c(-c3cc(S(=O)(=O)N4CCN(C)CC4)ccc3OCC)nc12 [sildenafil]
efficacy in the rat monocrotaline model of PAH [3]: showed efficacy
